Holding throughout (assay type): binding
For assay [1], the target named is T1, JAK3 (Homo sapiens, UniProt P52333).
T1 construct: endogenous in cells; host or cells: Molt4 (ATCC CRL-1582) and Ramos (ATCC CRL-1596) cells; mixed lysate 1:2
T1 sequence (P52333 1-1124): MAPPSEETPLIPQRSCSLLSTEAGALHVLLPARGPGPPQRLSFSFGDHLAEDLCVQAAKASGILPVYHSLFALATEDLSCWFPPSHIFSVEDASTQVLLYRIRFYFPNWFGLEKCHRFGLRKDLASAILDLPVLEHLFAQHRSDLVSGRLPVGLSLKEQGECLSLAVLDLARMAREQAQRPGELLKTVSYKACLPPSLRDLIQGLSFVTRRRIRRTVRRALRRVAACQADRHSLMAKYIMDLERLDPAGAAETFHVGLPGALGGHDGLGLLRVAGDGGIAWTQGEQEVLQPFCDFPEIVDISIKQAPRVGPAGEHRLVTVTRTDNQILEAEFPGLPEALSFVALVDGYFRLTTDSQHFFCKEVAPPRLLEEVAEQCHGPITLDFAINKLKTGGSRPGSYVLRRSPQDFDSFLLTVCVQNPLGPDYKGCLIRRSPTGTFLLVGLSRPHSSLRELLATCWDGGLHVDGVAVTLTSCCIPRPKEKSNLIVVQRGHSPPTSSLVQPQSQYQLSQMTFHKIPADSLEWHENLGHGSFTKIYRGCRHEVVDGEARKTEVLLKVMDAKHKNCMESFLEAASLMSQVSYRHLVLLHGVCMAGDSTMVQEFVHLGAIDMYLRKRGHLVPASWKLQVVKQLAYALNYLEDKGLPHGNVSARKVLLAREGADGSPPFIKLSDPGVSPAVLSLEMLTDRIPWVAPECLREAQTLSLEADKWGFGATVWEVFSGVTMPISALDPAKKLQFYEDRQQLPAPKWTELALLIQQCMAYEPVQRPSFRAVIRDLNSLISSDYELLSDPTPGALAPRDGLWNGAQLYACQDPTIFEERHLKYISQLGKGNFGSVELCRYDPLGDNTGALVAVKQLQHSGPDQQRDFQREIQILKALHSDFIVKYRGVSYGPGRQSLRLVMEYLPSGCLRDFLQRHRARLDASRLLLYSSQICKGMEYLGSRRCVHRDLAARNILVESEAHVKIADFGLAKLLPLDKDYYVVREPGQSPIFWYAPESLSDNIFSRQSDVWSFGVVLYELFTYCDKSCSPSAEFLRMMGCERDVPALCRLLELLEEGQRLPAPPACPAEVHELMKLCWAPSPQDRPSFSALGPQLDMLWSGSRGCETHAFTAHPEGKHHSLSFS
Description: Kinobeads assay with immunodetection, JAK3. The conditions noted are these: Kinobeads assay, mixed Molt4/Ramos lysate; read-out: Inhibition values (IC50) JAK3. As for the experimental part:
(§1) Determination of the Effect of the Compounds According to the Invention on Janus Kinases (JAK Family) in Kinobeads™ Assays with Immunodetection of Kinases
(§2) The compounds of the present invention as described in the previous examples were tested in a Kinobeads™ assay as described for ZAP-70 (WO-A 2007/137867). Briefly, test compounds (at various concentrations) and the affinity matrix with the immobilized aminopyrido-pyrimidine ligand 24 were added to cell lysate aliquots and allowed to bind to the proteins in the lysate sample. After the incubation time the beads with captured proteins were separated from the lysate. Bound proteins were then eluted and the presence of JAK1, JAK2, JAK3 and TYK2 was detected and quantified using specific antibodies in a dot blot procedure and the Odyssey infrared detection system. Dose response curves for individual kinases were generated and IC50 values calculated. Kinobeads™ assays for ZAP-70 (WO-A 2007/137867) and for kinase selectivity profiling (WO-A 2006/134056) have been previously described.
(§3) The affinity matrix was washed two times with 15 mL of 1×DP buffer containing 0.2% NP40 (IGEPAL® CA-630, Sigma, #13021) and then resuspended in 1×DP buffer containing 0.2% NP40 (3% beads slurry).
(§4) 5×DP buffer: 250 mM Tris-HCl pH 7.4, 25% Glycerol, 7.5 mM MgCl2, 750 mM NaCl, 5 mM Na3VO4; filter the 5×DP buffer through a 0.22 μm filter and store in aliquots at −80° C. The 5×DP buffer is diluted with H2O to 1×DP buffer containing 1 mM DTT and 25 mM NaF.
(§5) Stock solutions of test compounds were prepared in DMSO. In a 96 well plate 30 μL solution of diluted test compounds at 5 mM in DMSO were prepared. Starting with this solution a 1:3 dilution series (9 steps) was prepared. For control experiments (no test compound) a buffer containing 2% DMSO was used.
(§6) Molt4 cells (ATCC catalogue number CRL-1582) and Ramos cells (ATCC catalogue number CRL-1596) were grown in 1 L Spinner flasks (Integra Biosciences, #182101) in suspension in RPMI 1640 medium (Invitrogen, #21875-034) supplemented with 10% Fetal Bovine Serum (Invitrogen) at a density between 0.15×10^6 and 1.2×10^6 cells/mL. Cells were harvested by centrifugation, washed once with 1×PBS buffer (Invitrogen, #14190-094) and cell pellets were frozen in liquid nitrogen and subsequently stored at −80° C. Cells were homogenized in a Potter S homogenizer in lysis buffer: 50 mM Tris-HCl, 0.8% NP40, 5% glycerol, 150 mM NaCl, 1.5 mM MgCl2, 25 mM NaF, 1 mM sodium vanadate, 1 mM DTT, pH 7.5. One complete EDTA-free tablet (protease inhibitor cocktail, Roche Diagnostics, 1873580) per 25 ml, buffer was added. The material was dounced 10 times using a mechanized POTTER S, transferred to 50 mL falcon tubes, incubated for 30 minutes on ice and spun down for 10 minutes at 20,000 g at 4° C. (10,000 rpm in Sorvall SLA600, precooled). The supernatant was transferred to an ultracentrifuge (UZ)-polycarbonate tube (Beckmann, 355654) and spun for 1 hour at 100.000 g at 4° C. (33.500 rpm in Ti50.2, precooled). The supernatant was transferred again to a fresh 50 mL falcon tube, the protein concentration was determined by a Bradford assay (BioRad) and samples containing 50 mg of protein per aliquot were prepared. The samples were immediately used for experiments or frozen in liquid nitrogen and stored frozen at −80° C.
(§7) Cell lysate (approximately 50 mg protein per plate) was thawed in a water bath at room temperature and then stored on ice. To the thawed cell lysate 1×DP 0.8% NP40 buffer containing protease inhibitors (1 tablet for 25 mL buffer; EDTA-free protease inhibitor cocktail; Roche Diagnostics 1873580) was added in order to reach a final protein concentration of 10 mg/mL total protein. The diluted cell lysate was stored on ice. Mixed Molt4/Ramos lysate was prepared by combining one volume of Molt4 lysate and two volumes of Ramos lysate (ratio 1:2). […]

Assay [2] concerns the target T2, JAK1 (Homo sapiens, UniProt P23458).
T2 construct: endogenous in cells; host or cells: Molt4 (ATCC CRL-1582) and Ramos (ATCC CRL-1596) cells; mixed lysate 1:2
Description: Kinobeads assay with immunodetection, JAK1. The conditions noted are these: for IC50: Kinobeads assay, mixed Molt4/Ramos lysate, read-out: Inhibition values (IC50) JAK1. As for the experimental part: as §1, §2, §3, §4, §5, §6, §7

Assay [3] has as its target T3, JAK2 (Homo sapiens, UniProt O60674).
T3 construct: endogenous in cells; host or cells: Molt4 (ATCC CRL-1582) and Ramos (ATCC CRL-1596) cells; mixed lysate 1:2
The experiment in a line: Kinobeads assay with immunodetection, JAK2. Particulars: mixed Molt4/Ramos lysate, read-out: Inhibition values (IC50) JAK2. As for the experimental part:
as §1, §2, §3, §4, §5, §6, §7

For assay [4], the target named is T4, TYK2 (Homo sapiens, UniProt P29597).
T4 construct: endogenous in cells; host or cells: Molt4 (ATCC CRL-1582) and Ramos (ATCC CRL-1596) cells; mixed lysate 1:2
The experiment in a line: Kinobeads assay with immunodetection, TYK2. The conditions noted are these: for IC50: Kinobeads assay, mixed Molt4/Ramos lysate, read-out: Inhibition values (IC50) Tyk2. As for the experimental part:
as §1, §2, §3, §4, §5, §6, §7

T2 sequence (P23458 whole entry): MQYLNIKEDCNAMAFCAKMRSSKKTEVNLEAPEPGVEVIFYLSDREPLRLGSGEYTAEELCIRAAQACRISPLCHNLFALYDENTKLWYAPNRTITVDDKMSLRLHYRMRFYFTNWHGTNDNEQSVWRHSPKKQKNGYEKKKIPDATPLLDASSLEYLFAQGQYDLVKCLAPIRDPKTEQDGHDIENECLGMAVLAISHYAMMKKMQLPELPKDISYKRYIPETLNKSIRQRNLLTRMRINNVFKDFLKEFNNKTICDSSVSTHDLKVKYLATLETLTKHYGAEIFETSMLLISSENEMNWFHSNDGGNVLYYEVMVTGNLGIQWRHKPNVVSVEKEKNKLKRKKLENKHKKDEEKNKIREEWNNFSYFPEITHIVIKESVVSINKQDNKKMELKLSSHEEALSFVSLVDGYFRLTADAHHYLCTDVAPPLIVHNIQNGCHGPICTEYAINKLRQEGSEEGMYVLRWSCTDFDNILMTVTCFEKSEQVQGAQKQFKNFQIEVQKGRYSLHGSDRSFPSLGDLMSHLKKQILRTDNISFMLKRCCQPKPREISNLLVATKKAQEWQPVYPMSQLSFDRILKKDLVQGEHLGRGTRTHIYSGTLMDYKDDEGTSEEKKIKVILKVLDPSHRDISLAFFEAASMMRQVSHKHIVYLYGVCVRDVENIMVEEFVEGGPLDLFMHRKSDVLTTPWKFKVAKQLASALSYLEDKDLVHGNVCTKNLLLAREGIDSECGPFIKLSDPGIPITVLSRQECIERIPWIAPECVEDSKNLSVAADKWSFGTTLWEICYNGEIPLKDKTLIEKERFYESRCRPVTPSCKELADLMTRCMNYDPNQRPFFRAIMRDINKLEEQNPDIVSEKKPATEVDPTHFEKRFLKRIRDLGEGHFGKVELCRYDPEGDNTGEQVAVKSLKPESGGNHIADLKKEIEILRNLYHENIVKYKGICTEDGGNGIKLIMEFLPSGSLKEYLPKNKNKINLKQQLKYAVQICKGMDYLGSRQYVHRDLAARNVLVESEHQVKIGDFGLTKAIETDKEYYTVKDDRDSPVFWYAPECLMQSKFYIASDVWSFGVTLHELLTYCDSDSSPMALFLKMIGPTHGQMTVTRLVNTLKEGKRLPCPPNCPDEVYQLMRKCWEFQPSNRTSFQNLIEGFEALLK
T4 sequence (P29597 whole entry): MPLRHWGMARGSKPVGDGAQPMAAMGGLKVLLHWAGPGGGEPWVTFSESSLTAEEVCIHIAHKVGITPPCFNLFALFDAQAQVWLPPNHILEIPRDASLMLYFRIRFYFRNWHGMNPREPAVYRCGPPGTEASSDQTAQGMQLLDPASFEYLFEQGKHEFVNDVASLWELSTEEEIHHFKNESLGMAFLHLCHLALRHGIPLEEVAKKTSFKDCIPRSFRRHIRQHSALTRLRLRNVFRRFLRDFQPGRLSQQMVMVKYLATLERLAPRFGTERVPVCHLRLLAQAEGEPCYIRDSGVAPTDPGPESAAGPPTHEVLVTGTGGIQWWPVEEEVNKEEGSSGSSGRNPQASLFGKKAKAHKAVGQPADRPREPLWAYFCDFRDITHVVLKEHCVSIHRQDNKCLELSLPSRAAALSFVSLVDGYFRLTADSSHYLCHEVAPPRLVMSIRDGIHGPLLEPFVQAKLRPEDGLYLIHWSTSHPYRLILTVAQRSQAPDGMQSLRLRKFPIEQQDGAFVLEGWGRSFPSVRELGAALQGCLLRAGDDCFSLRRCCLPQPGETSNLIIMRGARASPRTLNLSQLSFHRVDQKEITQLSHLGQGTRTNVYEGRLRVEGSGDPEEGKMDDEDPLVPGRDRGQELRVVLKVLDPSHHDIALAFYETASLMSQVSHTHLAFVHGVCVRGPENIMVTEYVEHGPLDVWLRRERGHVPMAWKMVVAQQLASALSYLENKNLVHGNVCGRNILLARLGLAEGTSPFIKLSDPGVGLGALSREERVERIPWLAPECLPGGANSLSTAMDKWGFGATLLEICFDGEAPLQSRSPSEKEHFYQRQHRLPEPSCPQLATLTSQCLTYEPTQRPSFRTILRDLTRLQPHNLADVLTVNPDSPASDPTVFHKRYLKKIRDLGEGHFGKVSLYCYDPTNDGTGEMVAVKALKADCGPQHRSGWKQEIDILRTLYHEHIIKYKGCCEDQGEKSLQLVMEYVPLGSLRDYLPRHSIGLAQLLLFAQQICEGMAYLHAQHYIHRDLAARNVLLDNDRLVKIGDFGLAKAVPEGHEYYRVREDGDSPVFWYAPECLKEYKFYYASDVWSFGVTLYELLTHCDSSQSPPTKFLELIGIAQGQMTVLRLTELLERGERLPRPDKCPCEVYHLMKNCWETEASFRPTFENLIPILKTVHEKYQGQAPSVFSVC
T3 sequence (O60674 whole entry): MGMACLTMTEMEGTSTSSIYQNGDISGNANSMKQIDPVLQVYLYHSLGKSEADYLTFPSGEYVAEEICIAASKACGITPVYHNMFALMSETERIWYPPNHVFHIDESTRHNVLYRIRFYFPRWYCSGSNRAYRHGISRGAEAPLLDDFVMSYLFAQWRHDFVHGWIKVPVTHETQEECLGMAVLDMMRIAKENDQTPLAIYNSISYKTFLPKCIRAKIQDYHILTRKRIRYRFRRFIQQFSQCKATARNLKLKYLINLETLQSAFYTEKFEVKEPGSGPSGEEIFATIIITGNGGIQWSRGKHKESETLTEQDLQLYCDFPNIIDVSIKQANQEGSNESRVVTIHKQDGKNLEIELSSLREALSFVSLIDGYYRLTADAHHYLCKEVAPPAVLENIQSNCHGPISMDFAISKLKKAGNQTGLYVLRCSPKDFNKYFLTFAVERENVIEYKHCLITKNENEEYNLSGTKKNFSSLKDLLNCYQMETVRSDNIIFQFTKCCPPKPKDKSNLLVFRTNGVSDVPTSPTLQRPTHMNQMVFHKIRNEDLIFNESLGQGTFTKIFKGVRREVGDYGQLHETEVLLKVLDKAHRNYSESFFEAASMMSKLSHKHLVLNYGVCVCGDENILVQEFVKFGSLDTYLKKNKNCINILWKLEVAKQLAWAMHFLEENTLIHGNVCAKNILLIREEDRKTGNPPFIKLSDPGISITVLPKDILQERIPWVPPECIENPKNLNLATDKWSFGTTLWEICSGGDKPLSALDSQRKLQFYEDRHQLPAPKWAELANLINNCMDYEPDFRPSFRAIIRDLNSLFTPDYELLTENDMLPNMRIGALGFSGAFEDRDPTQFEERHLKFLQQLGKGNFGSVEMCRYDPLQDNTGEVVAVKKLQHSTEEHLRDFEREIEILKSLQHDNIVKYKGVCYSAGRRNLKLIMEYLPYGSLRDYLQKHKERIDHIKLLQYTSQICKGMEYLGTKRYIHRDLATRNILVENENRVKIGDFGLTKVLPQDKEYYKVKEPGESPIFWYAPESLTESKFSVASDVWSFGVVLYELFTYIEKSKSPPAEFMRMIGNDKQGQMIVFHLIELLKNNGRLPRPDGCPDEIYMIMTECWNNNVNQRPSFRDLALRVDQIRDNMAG

Turning to `C=CC(=O)N1CCC[C@H]1CNc1nc(Nc2cnn(CCO)c2)ncc1Cl` [Example 11, (S)-1-(2-(((5-chloro-2-((1-(2-hydroxyethyl)-1H-pyrazol-4-yl)amino)pyrimidin-4-yl)amino)methyl)pyrrolidin-1-yl)prop-2-en-1-one], the IC50 (commonly the concentration needed to halve the response being measured) was 1000 to 10000 nM in assay [1], 100 to 1000 nM in assay [2], over 10000 nM in assay [3] and 100 to 1000 nM in assay [4].

With `Cn1cc(Nc2ncc(Cl)c(NC[C@@H]3CCCN3S(C)(=O)=O)n2)cn1` [Example 12, (S)-5-chloro-N^2-(1-methyl-1H-pyrazol-4-yl)-N^4-((1-(methylsulfonyl)pyrrolidin-2-yl)methyl)pyrimidine-2,4-diamine], the IC50 in assay [1] is under 100 nM; in assay [2], under 100 nM; in assay [3], 100 to 1000 nM; in assay [4], under 100 nM. Further, the “Selectivity ratio over JAK2, JAK1” value in assay [2] was “JAK1 = 12”.

Turning to `CS(=O)(=O)N1CCC[C@H]1CNc1nc(Nc2cnn(CCO)c2)ncc1Cl` [Example 13, (S)-2-(4-((5-chloro-4-(((1-(methylsulfonyl)pyrrolidin-2-yl)methyl)amino)pyrimidin-2-yl)amino)-1H-pyrazol-1-yl)ethanol], the IC50 in assay [1] is under 100 nM; in assay [2], under 100 nM; in assay [3], 100 to 1000 nM; in assay [4] it was under 100 nM. Moreover, the “Selectivity ratio over JAK2, JAK1” value in assay [2] is on record as “JAK1 = 13”.

For `C=CS(=O)(=O)N1CCC[C@H]1CNc1nc(Nc2cnn(C)c2)ncc1Cl` [Example 14, (S)-5-chloro-N^2-(1-methyl-1H-pyrazol-4-yl)-N^4-((1-(vinylsulfonyl)pyrrolidin-2-yl)methyl)pyrimidine-2,4-diamine], the IC50 in assay [1] was under 100 nM; in assay [2], 100 to 1000 nM; in assay [3], 1000 to 10000 nM; in assay [4], under 100 nM. The “Selectivity ratio over JAK2, Tyk2” value in assay [4] (Tyk2 over JAK2) was “Tyk2 = 14”.

Consider `C=CS(=O)(=O)N1CCC[C@H]1CNc1nc(Nc2cnn(CCO)c2)ncc1Cl` [Example 15, (S)-2-(4-((5-chloro-4-(((1-(vinylsulfonyl)pyrrolidin-2-yl)methyl)amino)pyrimidin-2-yl)amino)-1H-pyrazol-1-yl)ethanol], for which the IC50 was under 100 nM in assay [1], under 100 nM in assay [2], 100 to 1000 nM in assay [3] and under 100 nM in assay [4]. For the same compound, the “Selectivity ratio over JAK2, JAK1” value in assay [2] is “JAK1 = 13”.

Turning to `CC(=O)N1CC(CNc2nc(Nc3cnn(C)c3)ncc2Cl)C1` [Example 16, 1-(3-(((5-chloro-2-((1-methyl-1H-pyrazol-4-yl)amino)pyrimidin-4-yl)amino)methyl)azetidin-1-yl)ethanone], the IC50 in assay [1], in assay [2], in assay [3] and in assay [4] was over 10000 nM each time.

Regarding `CC(=O)N1CC(CNc2nc(Nc3cnn(CCO)c3)ncc2Cl)C1` [Example 17, 1-(3-(((5-chloro-2-((1-(2-hydroxyethyl)-1H-pyrazol-4-yl)amino)pyrimidin-4-yl)amino)methyl)azetidin-1-yl)ethanone], the IC50 in assay [1] was 1000 to 10000 nM; in assay [2] it was 1000 to 10000 nM; in assay [3] it was over 10000 nM; in assay [4], 1000 to 10000 nM.

As to `Cn1cc(Nc2ncc(Cl)c(NCC3CN(S(C)(=O)=O)C3)n2)cn1` [Example 18, 5-chloro-N^2-(1-methyl-1H-pyrazol-4-yl)-N^4-((1-(methylsulfonyl)azetidin-3-yl)methyl)pyrimidine-2,4-diamine], the concentration for half-maximal inhibition (IC50) in assay [1], in assay [2], in assay [3] and in assay [4] was over 10000 nM in each case.

Turning to `CS(=O)(=O)N1CC(CNc2nc(Nc3cnn(CCO)c3)ncc2Cl)C1` [Example 19, 2-(4-((5-chloro-4-(((1-(methylsulfonyl)azetidin-3-yl)methyl)amino)pyrimidin-2-yl)amino)-1H-pyrazol-1-yl)ethanol], the IC50 was under 100 nM in assay [1], 100 to 1000 nM in assay [2], 1000 to 10000 nM in assay [3] and 100 to 1000 nM in assay [4].

As to `CC(=O)N1CC[C@H](CNc2nc(Nc3cnn(C)c3)ncc2Cl)C1` [Example 20, (R)-1-(3-(((5-chloro-2-((1-methyl-1H-pyrazol-4-yl)amino)pyrimidin-4-yl)amino)methyl)pyrrolidin-1-yl)ethanone], the IC50 in assay [1] lay within 1000 to 10000 nM; in assay [2], 100 to 1000 nM; in assay [3] it was 1000 to 10000 nM; in assay [4] it was 100 to 1000 nM. Moreover, the “Selectivity ratio over JAK2, JAK1” value in assay [2] is “JAK1 = 42”.

For `CC(=O)N1CC[C@H](CNc2nc(Nc3cnn(CCO)c3)ncc2Cl)C1` [Example 21, (R)-1-(3-(((5-chloro-2-((1-(2-hydroxyethyl)-1H-pyrazol-4-yl)amino)pyrimidin-4-yl)amino)methyl)pyrrolidin-1-yl)ethanone], the IC50 in assay [1] is 100 to 1000 nM; in assay [2], under 100 nM; in assay [3] it was 1000 to 10000 nM; in assay [4] it was under 100 nM. In assay [2], the “Selectivity ratio over JAK2, JAK1” value is “JAK1 = 78”.

Source of the values: patent US20150005281A1, “PYRIMIDINE-2,4-DIAMINE DERIVATIVES AS KINASE INHIBITORS” (Cellzome Limited, priority 2011, published 2015).
